Assay results as given in patent publication US7998995B2 (Exelixis Patent Company LLC, priority 2006, dated 2011).

System: T1, LXR
T1 construct: fused on or other part: GST fused to the LBD in the FRET assay
Assay: Measured EC50 or IC50 for LXR (LXRα and/or LXRβ; assay and subtype not given)
Conditions: IC50 or EC50 class, subtype not specified
Procedure: Measured EC50 or IC50 for LXR, and FXR for Compounds of the Invention
LXR and FXR activities for various compounds of the invention are presented in the following table; those compounds with EC50 or IC50 values <10 μM for at least one of LXRα, LXRβ or FXR are considered to be active. In the following Table, IC50 or EC50 data is represented as follows: A<1 μM, B=1-10 μm, and C>10 μM.

| EC50 | Compound |
| --- | --- |
| 1 to 10 µM | CS(=O)(=O)Cc1ccc(C#Cc2cc(C(F)(F)F)nn2-c2ccccc2Cl)cc1 [Example 110, 1-(2-chlorophenyl)-5-({4-[(methylsulfonyl)methyl]phenyl}ethynyl)-3-(trifluoromethyl)-1H-pyrazole] |
| < 1 µM | CS(=O)(=O)c1cccc(-c2ccc(-n3cc(-n4cnc(C#N)c4)nc3-c3ccccc3C(F)(F)F)cc2)c1 [Example 1008, 1′-(3′-(methylsulfonyl)biphenyl-4-yl)-2′-(2-(trifluoromethyl)phenyl)-1′H-1,4′-biimidazole-4-carbonitrile] |
| < 1 µM | Cn1oc(=O)nc1-c1cn(-c2ccc(-c3cccc(S(C)(=O)=O)c3)cc2)c(-c2ccccc2C(F)(F)F)n1 [Example 1034] |
| > 10 µM | CS(=O)(=O)c1cccc(-c2ccc(-n3cc(-c4ncco4)nc3-c3ccccc3C(F)(F)F)cc2)c1 [Example 1011, 2-(1-(3′-(methylsulfonyl)biphenyl-4-yl)-2-(2-(trifluoromethyl)phenyl)-1H-imidazol-4-yl)oxazole] |
| > 10 µM | O=C(O)Cc1cccc(-c2ccc(OCc3cc(C(F)(F)F)nn3-c3ccccc3Cl)cc2)c1 [Example 93, [4′-({[1-(2-chlorophenyl)-3-(trifluoromethyl)-1H-pyrazol-5-yl]methyl}oxy)biphenyl-3-yl]acetic acid] |
| < 1 µM | FC(F)(F)c1cc(COc2ccc(-n3ccnc3)cc2)n(-c2c(Cl)cccc2Cl)n1 [Example 923, 1-(2,6-dichlorophenyl)-5-({[4-(1H-imidazol-1-yl)phenyl]oxy}methyl)-3-(trifluoromethyl)-1H-pyrazole] |
| < 1 µM | Cc1csc(-c2cn(-c3ccc(-c4cccc(S(C)(=O)=O)c4)cc3)c(-c3c(Cl)cccc3Cl)n2)n1 [Example 1013, 2-(2-(2,6-dichlorophenyl)-1-(3′-(methylsulfonyl)biphenyl-4-yl)-1H-imidazol-4-yl)-4-methylthiazole] |
| 1 to 10 µM | NS(=O)(=O)c1cccc(C#Cc2cc(C(F)(F)F)nn2-c2ccccc2Cl)c1 [Example 107, 3-{[1-(2-chlorophenyl)-3-(trifluoromethyl)-1H-pyrazol-5-yl]ethynyl}benzenesulfonamide] |
| < 1 µM | CN1CC(c2cn(-c3ccc(-c4cccc(S(C)(=O)=O)c4)cc3Cl)c(-c3ccccc3Cl)n2)CC1=O (stereo not shown) [Example 984, 4-[1-(3-Chloro-3′-methanesulfonyl-biphenyl-4-yl)-2-(2-chlorophenyl)-1-H-imidazol-4-yl]-1-methyl-pyrrolidin-2-one] |
| < 1 µM | CS(=O)(=O)c1cccc(-c2ccc(OCc3cc(C(F)(F)F)nn3-c3c(Cl)cccc3Cl)cc2)c1 [Example 891, 1-(2,6-dichlorophenyl)-5-((3′-(methylsulfonyl)biphenyl-4-yloxy)methyl)-3-(trifluoromethyl)-1H-pyrazole] |
| < 1 µM | CS(=O)(=O)c1cccc(-c2ccc(-n3cc(-c4ccsc4)nc3-c3ccccc3C(F)(F)F)cc2)c1 [Example 996, 1-(3′-(methylsulfonyl)biphenyl-4-yl)-4-(thiophen-3-yl)-2-(2-(trifluoromethyl)phenyl)-1H-imidazole] |

More lines, now with the values behind:

| Compound | EC50 |
| --- | --- |
| Cc1cscc1-c1cn(-c2ccc(-c3cccc(S(C)(=O)=O)c3)cc2)c(-c2ccccc2C(F)(F)F)n1 [Example 993, 1-(3′-(methylsulfonyl)biphenyl-4-yl)-4-(4-methylthiophen-3-yl)-2-(2-(trifluoromethyl)phenyl)-1H-imidazole] | 1 to 10 µM |
| CC1(C)COC(c2cn(-c3ccc(-c4cccc(S(C)(=O)=O)c4)cc3)c(-c3c(Cl)cccc3Cl)n2)=N1 [Example 939, 2-{2-(2,6-dichlorophenyl)-1-[3′-(methylsulfonyl)biphenyl-4-yl]-1H-imidazol-4-yl}-4,4-dimethyl-4,5-dihydro-1,3-oxazole] | < 1 µM |
| CS(=O)(=O)c1cccc(NC(=O)c2cc(C(F)(F)F)nn2-c2cc(Cl)ccc2Cl)c1 [Example 99, 1-(2,5-dichlorophenyl)-N-[3-(methylsulfonyl)phenyl]-3-(trifluoromethyl)-1H-pyrazole-5-carboxamide] | > 10 µM |
| CC1(C)COC(c2cn(-c3ccc(-c4cccc(S(C)(=O)=O)c4)cc3Cl)c(-c3c(Cl)cccc3Cl)n2)=N1 [Example 934, 2-{1-[3-chloro-3′-(methylsulfonyl)biphenyl-4-yl]-2-(2,6-dichlorophenyl)-1H-imidazol-4-yl}-4,4-dimethyl-4,5-dihydro-1,3-oxazole] | < 1 µM |
| Cn1oc(=S)nc1-c1cn(-c2ccc(-c3cccc(S(C)(=O)=O)c3)cc2)c(-c2ccccc2C(F)(F)F)n1 [Example 1036] | < 1 µM |
| CS(=O)(=O)c1cccc(-c2ccc(-n3cc(-c4nccs4)nc3-c3c(Cl)cccc3Cl)cc2)c1 [Example 1014, 2-(2-(2,6-dichlorophenyl)-1-(3′-(methylsulfonyl)biphenyl-4-yl)-1H-imidazol-4-yl)thiazole] | < 1 µM |
| Cc1noc(-c2cn(-c3ccc(-c4cccc(S(C)(=O)=O)c4)cc3Cl)c(-c3c(Cl)cccc3Cl)n2)n1 [Example 944, 5-{1-[3-chloro-3′-(methylsulfonyl)biphenyl-4-yl]-2-(2,6-dichlorophenyl)-1H-imidazol-4-yl}-3-methyl-1,2,4-oxadiazole] | < 1 µM |
| CS(=O)(=O)c1cccc(CNC(=O)c2cc(C(F)(F)F)nn2-c2ccccc2Cl)c1 [Example 103, 1-(2-chlorophenyl)-N-{[3-(methylsulfonyl)phenyl]methyl}-3-(trifluoromethyl)-1H-pyrazole-5-carboxamide] | > 10 µM |
| CS(=O)(=O)c1ccc(C#Cc2cc(C(F)(F)F)nn2-c2ccccc2Cl)cc1 [Example 109, 1-(2-chlorophenyl)-5-{[4-(methylsulfonyl)phenyl]ethynyl}-3-(trifluoromethyl)-1H-pyrazole] | < 1 µM |
| Cn1cc(-c2cn(-c3ccc(-c4cccc(S(C)(=O)=O)c4)cc3)c(-c3ccccc3C(F)(F)F)n2)cn1 [Example 994, 1-methyl-4-(1-(3′-(methylsulfonyl)biphenyl-4-yl)-2-(2-(trifluoromethyl)phenyl)-1H-imidazol-4-yl)-1H-pyrazole] | < 1 µM |
| CS(=O)(=O)c1cccc(-c2ccc(-n3cc(N4CCCC4=O)nc3-c3c(Cl)cccc3Cl)cc2)c1 [Example 1005, 1-{2-(2,6-dichlorophenyl)-1-[3′-(methylsulfonyl)biphenyl-4-yl]-1H-imidazol-4-yl}pyrrolidin-2-one] | < 1 µM |
| CS(=O)(=O)c1cccc(-c2ccc(-n3cc(-c4ccoc4)nc3-c3ccccc3C(F)(F)F)cc2)c1 [Example 995, 4-(furan-3-yl)-1-(3′-(methylsulfonyl)biphenyl-4-yl)-2-(2-(trifluoromethyl)phenyl)-1H-imidazole] | < 1 µM |
| CS(=O)(=O)c1cccc(-c2ccc(NCc3cc(C(F)(F)F)nn3-c3ccccc3Cl)cc2)c1 [Example 928, N-{[1-(2-chlorophenyl)-3-(trifluoromethyl)-1H-pyrazol-5-yl]methyl}-3′-(methylsulfonyl)biphenyl-4-amine] | < 1 µM |
| CS(=O)(=O)c1cccc(-c2ccc(-n3cc(N4CCCC4)nc3-c3c(Cl)cccc3Cl)cc2)c1 [Example 1002, 2-(2,6-dichlorophenyl)-1-[3′-(methylsulfonyl)biphenyl-4-yl]-4-(pyrrolidin-1-yl)-1H-imidazole] | < 1 µM |
| FC(F)(F)c1cc(COc2ccc(-n3cccc3)cc2)n(-c2c(Cl)cccc2Cl)n1 [Example 922, 1-(2,6-dichlorophenyl)-5-({[4-(1H-pyrrol-1-yl)phenyl]oxy}methyl)-3-(trifluoromethyl)-1H-pyrazole] | < 1 µM |
| CN1CCCC1c1cn(-c2ccc(-c3cccc(S(C)(=O)=O)c3)cc2)c(C(C)(C)c2ccccc2Cl)n1 (stereo not shown) [Example 979, 2-[1-(2-chlorophenyl)-1-methylethyl]-4-(1-methylpyrrolidin-2-yl)-1-[3′-(methylsulfonyl)biphenyl-4-l]-1H-imidazole] | 1 to 10 µM |
| Cc1nc(-c2cn(-c3ccc(-c4cccc(S(C)(=O)=O)c4)cc3)c(-c3ccccc3C(F)(F)F)n2)no1 [Example 1032] | < 1 µM |
| CC(=O)N1CCCC1c1cn(-c2ccc(-c3cccc(S(C)(=O)=O)c3)cc2)c(C(C)(C)c2ccccc2Cl)n1 (stereo not shown) [Example 978, 4-(1-acetylpyrrolidin-2-yl)-2-[1-(2-chlorophenyl)-1-methylethyl]-1-[3′-(methylsulfonyl)biphenyl-4-yl]-1H-imidazole] | < 1 µM |
| CS(=O)(=O)c1cccc(-c2ccc(OCc3nc(C(F)(F)F)cn3-c3c(Cl)cccc3Cl)cc2)c1 [Example 114, 1-(2,6-dichlorophenyl)-2-({[3′-(methylsulfonyl)biphenyl-4-yl]oxy}methyl)-4-(trifluoromethyl)-1H-imidazole] | < 1 µM |
| CS(=O)(=O)c1cccc(-c2ccc(-n3cc(N4CCCCC4)nc3-c3ccccc3C(F)(F)F)cc2)c1 [Example 1004, 1-(1-(3′-(methylsulfonyl)biphenyl-4-yl)-2-(2-(trifluoromethyl)phenyl)-1H-imidazol-4-yl)piperidine] | < 1 µM |
| Cc1nccn1-c1cn(-c2ccc(-c3cccc(S(C)(=O)=O)c3)cc2)c(-c2c(Cl)cccc2Cl)n1 [Example 1001, 2′-(2,6-dichlorophenyl)-2-methyl-1′-[3′-(methylsulfonyl)biphenyl-4-yl]-1′H-1,4′-biimidazole] | < 1 µM |
| CS(=O)(=O)c1cccc(-c2ccc(-n3cc(C4=NCCN4)nc3-c3c(Cl)cccc3Cl)c(Cl)c2)c1 [Example 941, 1′-[3-chloro-3′-(methylsulfonyl)biphenyl-4-yl]-2′-(2,6-dichlorophenyl)-4,5-dihydro-1H,1′H-2,4′-biimidazole] | 1 to 10 µM |
| CC1CN=C(c2cn(-c3ccc(-c4cccc(S(C)(=O)=O)c4)cc3Cl)c(-c3c(Cl)cccc3Cl)n2)O1 (stereo not shown) [Example 937, 2-{1-[3-chloro-3′-(methylsulfonyl)biphenyl-4-yl]-2-(2,6-dichlorophenyl)-1H-imidazol-4-yl}-5-methyl-4,5-dihydro-1,3-oxazole] | < 1 µM |
